# Assay results reported in ChEMBL document CHEMBL1201862, “PubChem BioAssay data set” (2004).
#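 Briefly, cells in 96-well plates were exposed to five compound concentrations for 48 h, and endpoints were estimated by linear interpolation. GI50 is the concentration that inhibits growth by half.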 Activity calls are given as the source filed them. Rule as the data show it: active = GI50 up to about 1.1 µM and inactive = higher.
# Columns and labels:
# Test in all cases: growth of human tumour cells (NCI), 48 h
# PC-3 = system: PC-3
# A498 = system: A498
# HOP-92 = system: HOP-92
# U-251 = system: U-251
# MCF7 = system: MCF7
# MDA-N = system: MDA-N
# SF-295 = system: SF-295
# SF-539 = system: SF-539
# MOLT-4 = system: MOLT-4
# SK-MEL-2 = system: SK-MEL-2
# SNB-19 = system: SNB-19
# T47D = system: T47D
# K562 = system: K562
# UO-31 = system: UO-31
# HT-29 = system: HT-29
# SK-MEL-28 = system: SK-MEL-28
# NCI-H460 = system: NCI-H460
# ACHN = system: ACHN
# Hs-578T = system: Hs-578T
# A549 = system: A549
Structure (SMILES),GI50 (PC-3),GI50 (A498),GI50 (HOP-92),GI50 (U-251),GI50 (MCF7),GI50 (MDA-N),GI50 (SF-295),GI50 (SF-539),GI50 (MOLT-4),GI50 (SK-MEL-2),GI50 (SNB-19),GI50 (T47D),GI50 (K562),GI50 (UO-31),GI50 (HT-29),GI50 (SK-MEL-28),GI50 (NCI-H460),GI50 (ACHN),GI50 (Hs-578T),GI50 (A549)
Oc1cc(-c2ccccc2Cl)nc2cc3c(cc12)OCO3,0.0451 µM (active),0.116 µM (active),0.102 µM (active),0.0736 µM (active),0.0518 µM (active),0.0158 µM (active),0.107 µM (active),0.103 µM (active),0.123 µM (active),0.0719 µM (active),0.144 µM (active),26.6 µM (inactive),0.0399 µM (active),0.224 µM (active),0.0676 µM (active),0.0638 µM (active),0.0719 µM (active),0.731 µM (active),0.44 µM (active),0.156 µM (active)
c1ccc2c(c1)[nH]c1c3ccccc3sc21,> 100 µM (inactive),> 100 µM (inactive),> 100 µM (inactive),89.3 µM (inactive),24.9 µM (inactive),> 100 µM (inactive),38.1 µM (inactive),> 100 µM (inactive),> 100 µM (inactive),> 100 µM (inactive),> 100 µM (inactive),38.3 µM (inactive),> 100 µM (inactive),> 100 µM (inactive),> 100 µM (inactive),> 100 µM (inactive),> 100 µM (inactive),> 100 µM (inactive),> 100 µM (inactive),77.4 µM (inactive)
NC(=S)NNCC(=O)CC(O)(C(F)(F)F)C(F)(F)Cl (stereo not given),> 100 µM (inactive),> 100 µM (inactive),> 100 µM (inactive),> 100 µM (inactive),> 100 µM (inactive),> 100 µM (inactive),> 100 µM (inactive),> 100 µM (inactive),> 100 µM (inactive),> 100 µM (inactive),> 100 µM (inactive),64.7 µM (inactive),> 100 µM (inactive),> 100 µM (inactive),> 100 µM (inactive),> 100 µM (inactive),63.2 µM (inactive),54.5 µM (inactive),> 100 µM (inactive),> 100 µM (inactive)
CC(CCN)(CCN)[N+](=O)[O-],> 100 µM (inactive),> 100 µM (inactive),> 100 µM (inactive),> 100 µM (inactive),> 100 µM (inactive),> 100 µM (inactive),> 100 µM (inactive),> 100 µM (inactive),> 100 µM (inactive),> 100 µM (inactive),> 100 µM (inactive),> 100 µM (inactive),> 100 µM (inactive),> 100 µM (inactive),> 100 µM (inactive),> 100 µM (inactive),> 100 µM (inactive),> 100 µM (inactive),> 100 µM (inactive),> 100 µM (inactive)
CC(=O)Nc1[nH]c(C#N)nc1C#N,> 100 µM (inactive),> 100 µM (inactive),> 100 µM (inactive),> 100 µM (inactive),> 100 µM (inactive),> 100 µM (inactive),> 100 µM (inactive),> 100 µM (inactive),> 100 µM (inactive),> 100 µM (inactive),> 100 µM (inactive),> 100 µM (inactive),> 100 µM (inactive),> 100 µM (inactive),> 100 µM (inactive),> 100 µM (inactive),> 100 µM (inactive),> 100 µM (inactive),> 100 µM (inactive),> 100 µM (inactive)
Clc1ccc(-c2nnc3sc4nc5ccccc5c-4nn23)c(Cl)c1,43.3 µM (inactive),36.4 µM (inactive),19.1 µM (inactive),36.6 µM (inactive),43.3 µM (inactive),28.6 µM (inactive),36.2 µM (inactive),50.9 µM (inactive),36.8 µM (inactive),30.6 µM (inactive),49.4 µM (inactive),59.2 µM (inactive),31.8 µM (inactive),62.4 µM (inactive),55.7 µM (inactive),43.9 µM (inactive),41.8 µM (inactive),82.8 µM (inactive),21.7 µM (inactive),41.7 µM (inactive)
COc1c(-c2nc3ccc(N4CCN(C)CC4)cc3[nH]2)cc(OC)c2[nH]c(COC(C)=O)nc12,37.1 µM (inactive),> 100 µM (inactive),> 100 µM (inactive),48.3 µM (inactive),38.7 µM (inactive),40.4 µM (inactive),71.8 µM (inactive),36.6 µM (inactive),45 µM (inactive),45.9 µM (inactive),36 µM (inactive),24.8 µM (inactive),56.6 µM (inactive),42.3 µM (inactive),36.7 µM (inactive),> 100 µM (inactive),43.1 µM (inactive),63.4 µM (inactive),> 100 µM (inactive),62.1 µM (inactive)
O=C(O)c1ccccc1/N=N/c1c(O)c(S(=O)(=O)O)cc2cc(S(=O)(=O)O)ccc12,> 100 µM (inactive),> 100 µM (inactive),> 100 µM (inactive),> 100 µM (inactive),> 100 µM (inactive),> 100 µM (inactive),> 100 µM (inactive),> 100 µM (inactive),> 100 µM (inactive),> 100 µM (inactive),> 100 µM (inactive),> 100 µM (inactive),> 100 µM (inactive),> 100 µM (inactive),> 100 µM (inactive),> 100 µM (inactive),> 100 µM (inactive),> 100 µM (inactive),> 100 µM (inactive),> 100 µM (inactive)
C=C1CC(Cn2ccc(=O)[nH]c2=O)(c2ccc(-c3ccccc3)cc2)OC1=O (stereo not given),3.2 µM (inactive),2.86 µM (inactive),1.2 µM (inactive),12.1 µM (inactive),0.916 µM (active),1.03 µM (active),12.5 µM (inactive),2.4 µM (inactive),1.5 µM (inactive),2.09 µM (inactive),16.9 µM (inactive),1.57 µM (inactive),0.208 µM (active),6.64 µM (inactive),0.938 µM (active),2.45 µM (inactive),11.2 µM (inactive),1.78 µM (inactive),3.7 µM (inactive),11.1 µM (inactive)
O=C1Nc2ccccc2/C1=C\c1c(Cl)n(-c2ccccc2)c2ccccc12,3.78 µM (inactive),6.7 µM (inactive),0.946 µM (active),3.48 µM (inactive),3.44 µM (inactive),1.14 µM (inactive),3.18 µM (inactive),1.87 µM (inactive),4.82 µM (inactive),8.69 µM (inactive),2.99 µM (inactive),3.41 µM (inactive),2.48 µM (inactive),2.4 µM (inactive),2.43 µM (inactive),12 µM (inactive),3.18 µM (inactive),5.75 µM (inactive),0.851 µM (active),3.52 µM (inactive)
